Test results published in publication PMC12454603 (Archives of Toxicology, 2025).
Values joined by “and” are separate entries in the source; they are usually repeats but may differ in a detail not shown here. Identical values can stand only once. “Also recorded” adds a separate entry of the source. Like-named read-outs stand apart in the source and are kept apart here.

How the values were obtained:
[1] = tested on: ES-D3 cells (differentiation into contracting cardiomyocytes); assay: ES-D3 cell differentiation assay of the mouse embryonic stem cell test (mEST); assay type: cell-based; settings: for IC50: Mus musculus, Cardiomyocyte, 240 h, read-out: IC50 for inhibition of differentiation of ES-D3 cells into beating cardiomyocytes; for Outcome in the differentiation assay of the mEST: parent PAH tested without bioactivation
Method: The developmental toxicity of the test compounds was assessed by the inhibitory effect on the differentiation of cells of the ES-D3 cell line into contracting cardiomyocytes. The assay was performed essentially as previously described (Kamelia et al. [2020]). The cells were cultured on the lid of a 96-well plate in 45 hanging drops (volume 20 µL/drop) at a concentration of 37,500 cells/ml. The 96 wells were filled with 250 µL PBS to maintain the humidity. Sterile Eppendorf lids were placed at the corners of the 96-well plate to prevent the hanging drops from contacting the 96-well plate. The plates were sealed with micropore tape and incubated at 37 °C with 5% CO2 in a humidified atmosphere for 72 h. After 72 h, 5 ml exposure medium was prepared for each concentration of each test compound with 0.25% DMSO in a 60 × 15 mm petri dish. The formed embryonic bodies (EBs) in the hanging drops on the lid of the 96-well plate were washed off with exposure medium and collected in the petri dish. The Petri dish was subsequently incubated at 37 °C with 5% CO2 in a humidified atmosphere for 48 h. After 48 h, the EBs were transferred to a 24-well plate filled with 1 ml exposure medium per well. Each well contained 1 EB. The 24-well plates were incubated at 37 °C with 5% CO2 in a humidified atmosphere for 120 h. The number of EBs with contracting cardiomyocytes and the undifferentiated EBs were counted under a microscope. In the solvent (DMSO) control, the presence of more than 21 EBs with contracting cardiomyocytes out of 24 EBs indicates a valid assay. In each experiment, 0.5 µM (0.065 µg/ml) 5-FU was used as a positive control. The result of the differentiation assay is expressed as the fraction of differentiated EBs of the total number of EBs.
(§1) The concentration–response data for the test compounds in the mEST were presented in three curves including curves for 1-day cytotoxicity, 5-day cytotoxicity, and 10-day differentiation assays. The obtained curves were fitted using the inhibition equation log (inhibitor) vs response (three parameters) option using GraphPad Prism software 5.0 (California, USA).

[2] = In vivo kinetic study, intravenous 50 mg/kg bw, blood concentrations; settings: rat, 50 mg/kg bw parent PAH
Method: Six male Sprague–Dawley rats at the age of 8–9 weeks weighing 286-305g/rat were obtained from Charles River Inc (Beijing, China). The rats were maintained in plastic cages in two groups of three in a temperature-controlled (ranging from 20 °C to 25 °C) and humidity-controlled (ranging from 40–70%) environment on a 12-h light–dark cycle. The animal bedding was corncob and used after autoclaving. The bedding and the cages were changed twice a week. The number of animals was restricted to 3 per dose group and control blood samples were collected before dosing. Feeding and living conditions followed the Chinese Laboratory Animal-Requirement of environment and housing facilities (GB14925-2010). The present rat study was approved by Institutional Animal Care and Use Committee (IACUC-BF202305006).
All animals were fasted 8 h before intravenous injection and resumed feed supply 4 h after dosing.
After administration, blood samples (0.1–0.2 ml blood volume) were taken from the medial canthus venous plexus of the animal and anticoagulated with sodium heparin. Prior to orbital venipuncture and blood collection, the animals were anesthetized by CO2 inhalation (70% CO2 + 30% O2). Blood was sampled at 1 min, 0.5, 1, 2, 4, 8, 12, 24, 32, 48, and 72 h post-dosing. After collection, blood samples were frozen and were stored at −20 °C until analysis. All animals were euthanized with 100% CO2 after the experiment.
Aliquots of 100 µL of blood samples were transferred into centrifuge tubes and 700 µL sodium acetate buffer (0.1M, pH 5.0) and 6 µL β-glucuronidase-arylsulfatase were added. The samples were incubated for 1 h at 37 °C and subsequently extracted twice with 800 µL ethyl acetate saturated with water. The samples were shaken for 30 min and centrifuged 5 min at 2000 g (4 °C). The upper organic phase was transferred to a centrifuge tube and evaporated under a gentle stream of nitrogen at 40 ℃ in a water bath. The residues were re-dissolved with 200 µL ascorbic acid:methanol (1:100). […]

ES-D3 cells = assay: ES-D3 cell cytotoxicity (WST-1 viability) assay of the mEST; assay type: cell-based, mouse
Method: The viability of the ES-D3 cells following 1-day and 5-day exposure to the test compounds was measured with the WST-1 assay. To this end, 100 µL cell suspension was seeded in the inner 60 wells of 96-well plates at a concentration of 2 × 10^5 cells/ml for 1-day exposure and 10^4 cells/ml for 5-day exposure and incubated at 37 °C with 5% CO2 for 24 h. After 24 h, 100 µL exposure medium with 0.25% DMSO and the required concentration of the test compounds, solvent control, and positive control were added to the cells in triplicate. The plates were incubated at 37 °C with 5% CO2 for 1 day or 5 days until measurement. After the exposure period, 20 µL of the cell proliferation reagent WST-1 were added to each well that contained cells and the cells were incubated for 3 h at 37 °C with 5% CO2. The absorbance of each plate was measured at 440 nm and 620 nm with a SpectraMax iD3 (San Jose, USA).
as §1

[3] = tested on: P450 enzymes in rat liver microsomes; assay: P450-mediated oxidative metabolism of 8-MBaP/BaP in rat liver microsomes; assay type: in vitro ADME
Method: 3-OH-8-MBaP was subsequently modeled to be conjugated by glucuronidation and sulfation in the liver. The kinetic constants for these conjugation reactions were determined in incubation experiments described in Sect. […] The scaling factors from rat liver microsomes and rat liver S9 to the whole liver were 45 mg microsomal protein/g liver and 125 mg S9 protein/g liver, respectively (Houston and Galetin [2008]).

[4] = tested on: P450 enzymes in rat liver microsomes; design: method as in Wang et al. 2022; settings: cited from earlier work
rats [5] = tested on: rats; design: method as in Wang et al. 2021; settings: rat, oral exposure, previously predicted dose–response curve; ref Wang et al. 2021; cited from earlier work
rats [6] = assay: PBK modeling-facilitated reverse dosimetry (QIVIVE) of mEST data to predict developmental toxicity; settings: rat
Method: The relationship between the in vivo 3-OH-8-MBaP concentration in maternal blood (C in vivo) and the in vitro 3-OH-8-MBaP concentration in the mEST (Cin vitro) was described by the following Eq. (2): 2 Cinvivo∗fub,invivo=Cinvitro∗fub,invitro
The fraction unbound in blood (fub, in vivo) of 3-OH-8-MBaP was calculated as 0.004 (Table 2) based on the methodology mentioned in Sect. “PBK model for 8-MBaP in rats”. The fraction unbound in the mEST (fub, in vitro) was assumed to be half of the fub, in vivo based on the ratio between the protein content in rat blood plasma (7.5%) and the mEST assay medium (15%). The unbound concentration in vitro (Cub, in vitro) inducing the developmental toxicity response in mEST was converted using Eq. (2) to an unbound concentration in blood (Cub,in vivo) that was further converted by the PBK model to a predicted oral dose.

[7] = design: method as in Sun et al. 2002; settings: 8-MBaP assumed to be the same as BaP; ref Sun et al. 2002; cited from earlier work
rats [8] = tested on: rats; design: method as in Archibong et al. 2002; settings: rat; derived from reported in vivo dose–response data; ref Archibong et al. 2002; cited from earlier work
[9] = scaled to whole liver, liver weight 9.1 g
[10] = scaled with 45 mg microsomal protein/g liver

| SMILES | IC50 [1] [µM] | Observed in vivo Cmax relative to the model prediction (lower) [2] [fold] | Cytotoxicity accompanying the inhibition of differentiation (ES-D3 cells; 1-day and 5-day cytotoxicity, ES-D3 cells) | Outcome in the differentiation assay of the mEST [1] | Scaled Vmax, 8-MBaP to 3-OH-8-MBaP [3, 9] [µmol/h/liver] | Scaled Vmax, 8-MBaP to other metabolites [3, 9] [µmol/h/liver] | Scaled Vmax, 8-MBaP to 3-OH-8-MBaP [3, 10] [µmol/h/g liver] | Scaled Vmax, 8-MBaP to other metabolites [3, 10] [µmol/h/g liver] | Km ([4]; read-out: Km, 8-MBaP to 3-OH-8-MBaP, ref Wang et al. 2022, listed as 8MBaP) [µM] | Km ([4]; read-out: Km, 8-MBaP to 3-OH-8-MBaP, ref Wang et al. 2022) [µM] | Km ([4]; read-out: Km, 8-MBaP to other metabolites, sum of other metabolites, ref Wang et al. 2022, listed as 8MBaP) [µM] | Km ([4]; read-out: Km, 8-MBaP to other metabolites, sum of other metabolites, ref Wang et al. 2022) [µM] | Vmax, 8-MBaP to 3-OH-8-MBaP ([4]; ref Wang et al. 2022) | Vmax, 8-MBaP to other metabolites ([4]; sum of other metabolites, ref Wang et al. 2022) | IC50 (ES-D3 cells; Mus musculus, 120 h, 5-day exposure, WST-1, read-out: IC50 for reduction of cell viability on Day 5) [µM] | ED50 for developmental toxicity, model prediction (rats [5]) [mg/kg bw] | Predicted ED50 of BaP (present study) relative to previously predicted ED50 of BaP (lower) (rats [6]; oral, versus Wang et al. 2021) [fold] | Predicted ED50 of BaP (present study) relative to ED50 from the reported in vivo study (higher) (rats [6]; versus Archibong et al. 2002) [fold] | Permeability coefficient (Papp), apparent intestinal permeability in vivo [7] [dm/hr] | ED50 for developmental toxicity, in vivo toxicity study (rats [8]) [mg/kg bw] |
| --- | --- | --- | --- | --- | --- | --- | --- | --- | --- | --- | --- | --- | --- | --- | --- | --- | --- | --- | --- | --- |
| Oc1ccc2ccc3c4ccccc4cc4ccc1c2c43 [3-OHBaP, 3-hydroxy-benzo[a]pyrene, reference compound] | 1.51 | 2.6 | non-cytotoxic concentrations |  |  |  |  |  |  |  |  |  |  |  |  |  |  |  |  |  |
| Cc1ccc2c(c1)cc1ccc3cccc4ccc2c1c34 [8-MBaP, 8-methyl-benzo[a]pyrene] | 0.83 |  |  | negative | 2 | 11 | 0.19 | 1.18 | 12 | 11.6 | 8 | 8.07 | 0.07 nmol/min/mg microsomal protein and 0.07^a nmol/min/mg microsomal protein | 0.43 nmol/min/mg microsomal protein and 0.43^a nmol/min/mg microsomal protein | 1.74 |  |  |  |  |  |
| c1ccc2c(c1)cc1ccc3cccc4ccc2c1c34 [BaP, benzo[a]pyrene] |  |  |  | inactive; also recorded: negative |  |  |  |  |  |  |  |  |  |  |  | 15.1 | 0.9 | 1.3 | 0.02 | 10.8 |
